Data taken from PubChem BioAssay AID248 (DTP/NCI, 2004).
Several values for one entry are separate records, joined by “and”; a condition that tells them apart may be missing. Equal values may be shown once. Inconclusive results and toxic doses are left out. Rule as the data show it: active = T/C of 150% or more; inactive = T/C below 125%.

Test system: L1210 leukemia ip in BDF1 mice, survival T/C
Assay: NCI In Vivo Anticancer Drug Screen. Data for tumor model L1210 Leukemia (intraperitoneal) in B6D2F1 (BDF1) mice
Conditions: endpoint: mean survival time, higher = longer survival
Method in brief: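 Each compound was tested against a transplantable tumor grown in mice. The endpoint was survival, with treated animals benchmarked against vehicle controls as a simple ratio.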

[1] = dose: 50.0 mg/kg/injection, schedule: Q01DX001 (ip), vehicle: other
[2] = dose: 100.0 mg/kg/injection, schedule: Q01DX001 (ip), vehicle: other
[3] = dose: 200.0 mg/kg/injection, schedule: Q01DX001 (ip), vehicle: other
[4] = dose: 400.0 mg/kg/injection, schedule: Q01DX001 (ip), vehicle: other
[5] = dose: 25.0 mg/kg/injection, schedule: Q01DX009 (ip), vehicle: saline
[6] = dose: 25.0 mg/kg/injection, schedule: Q04DX003 (ip), vehicle: saline
[7] = dose: 50.0 mg/kg/injection, schedule: Q01DX009 (ip), vehicle: saline
[8] = dose: 50.0 mg/kg/injection, schedule: Q04DX003 (ip), vehicle: saline
[9] = dose: 100.0 mg/kg/injection, schedule: Q01DX009 (ip), vehicle: saline
[10] = dose: 100.0 mg/kg/injection, schedule: Q04DX003 (ip), vehicle: saline
[11] = dose: 100.0 mg/kg/injection, schedule: Q01DX001 (ip), vehicle: saline
[12] = dose: 200.0 mg/kg/injection, schedule: Q01DX001 (ip), vehicle: saline
[13] = dose: 400.0 mg/kg/injection, schedule: Q01DX001 (ip), vehicle: saline
[14] = dose: 100.0 mg/kg/injection, schedule: Q01DX009 (ip), vehicle: saline with Tween-80
[15] = dose: 100.0 mg/kg/injection, schedule: Q04DX003 (ip), vehicle: saline with Tween-80
[16] = dose: 200.0 mg/kg/injection, schedule: Q01DX009 (ip), vehicle: saline with Tween-80
[17] = dose: 200.0 mg/kg/injection, schedule: Q04DX003 (ip), vehicle: saline with Tween-80
[18] = dose: 400.0 mg/kg/injection, schedule: Q01DX009 (ip), vehicle: saline with Tween-80
[19] = dose: 400.0 mg/kg/injection, schedule: Q04DX003 (ip), vehicle: saline with Tween-80
[20] = dose: 100.0 mg/kg/injection, schedule: Q04DX002 (ip), vehicle: saline with Tween-80
[21] = dose: 200.0 mg/kg/injection, schedule: Q04DX002 (ip), vehicle: saline with Tween-80
[22] = dose: 400.0 mg/kg/injection, schedule: Q04DX002 (ip), vehicle: saline with Tween-80
[23] = dose: 100.0 mg/kg/injection, schedule: Q04DX002 (ip), vehicle: Klucel (hydroxypropylcellulose) (HPC)
[24] = dose: 200.0 mg/kg/injection, schedule: Q04DX002 (ip), vehicle: Klucel (hydroxypropylcellulose) (HPC)
[25] = dose: 400.0 mg/kg/injection, schedule: Q04DX002 (ip), vehicle: Klucel (hydroxypropylcellulose) (HPC)
[26] = dose: 100.0 mg/kg/injection, schedule: Q01DX009 (ip), vehicle: Klucel (hydroxypropylcellulose) (HPC)
[27] = dose: 200.0 mg/kg/injection, schedule: Q01DX009 (ip), vehicle: Klucel (hydroxypropylcellulose) (HPC)
[28] = dose: 400.0 mg/kg/injection, schedule: Q01DX009 (ip), vehicle: Klucel (hydroxypropylcellulose) (HPC)
[29] = dose: 200.0 mg/kg/injection, schedule: Q01DX009 (ip), vehicle: saline
[30] = dose: 400.0 mg/kg/injection, schedule: Q01DX009 (ip), vehicle: saline
[31] = dose: 200.0 mg/kg/injection, schedule: Q04DX003 (ip), vehicle: saline
[32] = dose: 400.0 mg/kg/injection, schedule: Q04DX003 (ip), vehicle: saline

Measured: T/C

O=C(CCCC(=O)N/N=C/c1cccc2ccccc12)N/N=C/c1cccc2ccccc12
inactive: [1] 93 % of control | [2] 91 % of control | [3] 91 % of control | [4] 87 % of control

CC1CCCCN1CCCO (stereo unspecified)
inactive: [5] 87 % of control | [6] 103 % of control | [7] 91 % of control | [8] 112 % of control | [9] 89 % of control | [10] 92 % of control and 95 % of control

Nc1ncnc2nc(-c3ccc(C(=O)c4cccc(NC(=O)Nc5ccc(S(=O)(=O)F)cc5)c4)cc3)[nH]c12
inactive: dose: 37.5 mg/kg/injection, schedule: Q01DX001 (ip), vehicle: saline 95 % of control | dose: 75.0 mg/kg/injection, schedule: Q01DX001 (ip), vehicle: saline 92 % of control | dose: 150.0 mg/kg/injection, schedule: Q01DX001 (ip), vehicle: saline 90 % of control

COc1ccc(NC(=O)Nc2ccc(C3=NCCN3)cc2)cc1NC(=O)Nc1ccc(C2=NCCN2)cc1
inactive: dose: 8.0 mg/kg/injection, schedule: Q01DX Z (ip), vehicle: carboxymethylcellulose (CMC) 107 % of control | dose: 16.0 mg/kg/injection, schedule: Q01DX Z (ip), vehicle: carboxymethylcellulose (CMC) 102 % of control | dose: 31.0 mg/kg/injection, schedule: Q01DX Z (ip), vehicle: carboxymethylcellulose (CMC) 100 % of control | dose: 62.0 mg/kg/injection, schedule: Q01DX Z (ip), vehicle: carboxymethylcellulose (CMC) 104 % of control | dose: 125.0 mg/kg/injection, schedule: Q01DX Z (ip), vehicle: carboxymethylcellulose (CMC) 102 % of control

Clc1ccc(/C=N/Nc2c3ccccc3nc3ccccc23)c(Cl)c1
inactive: [11] 92 % of control | [12] 97 % of control | [13] 100 % of control

CCCC(F)C(=O)OCC (stereo unspecified)
inactive: [14] 108 % of control | [15] 98 % of control | [16] 94 % of control | [17] 96 % of control | [18] 87 % of control | [19] 106 % of control

O=C(N/N=C\c1c(Cl)cccc1Cl)N/N=C/c1c(Cl)cccc1Cl
inactive: [20] 89 % of control | [21] 99 % of control | [22] 95 % of control

C#CC(CC)(CC)NC(=O)NC(C)(C)C
inactive: [23] 98 % of control | [24] 102 % of control | [25] 86 % of control

O=C1N(c2ccccc2)C(c2ccc([N+](=O)[O-])cc2)C1(c1ccccc1)c1ccccc1 (stereo unspecified)
inactive: dose: 100.0 mg/kg/injection, schedule: Q04DX003 (ip), vehicle: gum acacia 96 % of control | dose: 200.0 mg/kg/injection, schedule: Q04DX003 (ip), vehicle: gum acacia 89 % of control | dose: 400.0 mg/kg/injection, schedule: Q04DX003 (ip), vehicle: gum acacia 96 % of control

Cc1cc(OS(C)(=O)=O)ccc1OS(C)(=O)=O
inactive: [14] 94 % of control | [15] 98 % of control | [16] 94 % of control | [17] 94 % of control | [18] 92 % of control | [19] 98 % of control

Cc1cc(OC(=O)Nc2cc(C(F)(F)F)ccc2Cl)ccc1Cl
inactive: [26] 98 % of control | [27] 104 % of control | [28] 95 % of control

CNc1ccc(S(=O)(=O)O)cc1
inactive: [26] 98 % of control | dose: 100.0 mg/kg/injection, schedule: Q04DX003 (ip), vehicle: Klucel (hydroxypropylcellulose) (HPC) 104 % of control | [27] 103 % of control | dose: 200.0 mg/kg/injection, schedule: Q04DX003 (ip), vehicle: Klucel (hydroxypropylcellulose) (HPC) 102 % of control | [28] 101 % of control | dose: 400.0 mg/kg/injection, schedule: Q04DX003 (ip), vehicle: Klucel (hydroxypropylcellulose) (HPC) 98 % of control

CNC(=O)Oc1ccc(SC)c(C)c1
inactive: dose: 0.37 mg/kg/injection, schedule: Q01DX009 (ip), vehicle: Klucel (hydroxypropylcellulose) (HPC) 94 % of control | dose: 0.75 mg/kg/injection, schedule: Q01DX009 (ip), vehicle: Klucel (hydroxypropylcellulose) (HPC) 97 % of control | dose: 1.5 mg/kg/injection, schedule: Q01DX009 (ip), vehicle: Klucel (hydroxypropylcellulose) (HPC) 102 % of control and 103 % of control | dose: 5.0 mg/kg/injection, schedule: Q01DX001 (ip), vehicle: carboxymethylcellulose (CMC) 86 % of control | dose: 10.0 mg/kg/injection, schedule: Q01DX001 (ip), vehicle: carboxymethylcellulose (CMC) 94 % of control

CC(=O)/C(=C\c1ccccc1)CNC(C)(C)C
inactive: [11] 92 % of control

COC(=O)CC(OC)OC
inactive: [14] 107 % of control | [9] 103 % of control | [15] 89 % of control | [16] 100 % of control | [29] 103 % of control | [17] 102 % of control | [18] 97 % of control | [30] 105 % of control | [19] 101 % of control

O=c1[nH]cc(Sc2ccccc2)c(=O)[nH]1
inactive: [15] 101 % of control | [17] 93 % of control | [19] 96 % of control

NC(N)=N/N=C(/c1ccccc1)c1ccc(N)cc1
inactive: dose: 3.5 mg/kg/injection, schedule: Q01DX Z (oral), vehicle: carboxymethylcellulose (CMC) 102 % of control | dose: 75.0 mg/kg/injection, schedule: Q01DX Z (oral), vehicle: carboxymethylcellulose (CMC) 102 % of control | dose: 150.0 mg/kg/injection, schedule: Q01DX Z (oral), vehicle: carboxymethylcellulose (CMC) 98 % of control | dose: 300.0 mg/kg/injection, schedule: Q01DX Z (oral), vehicle: carboxymethylcellulose (CMC) 104 % of control

O=C(O)c1ccccc1C(=O)N1CCCC1
inactive: [23] 96 % of control | [24] 86 % of control | [25] 93 % of control

CC(C)C1CCC2=C(CCC3C(C)(C(=O)O)CCCC23C)C1 (stereo unspecified)
inactive: [14] 89 % of control | [16] 91 % of control | [18] 89 % of control

COc1ccc(Cl)cc1NC(=O)Nc1ccc(SC)cc1
inactive: [26] 98 % of control | [27] 94 % of control | [28] 96 % of control

CCCCCCCCCCCCCCCCCC1=NCCN1
inactive: dose: 6.25 mg/kg/injection, schedule: Q01DX009 (ip), vehicle: Klucel (hydroxypropylcellulose) (HPC) 95 % of control | dose: 12.5 mg/kg/injection, schedule: Q01DX009 (ip), vehicle: Klucel (hydroxypropylcellulose) (HPC) 87 % of control | dose: 25.0 mg/kg/injection, schedule: Q01DX009 (ip), vehicle: Klucel (hydroxypropylcellulose) (HPC) 92 % of control | dose: 25.0 mg/kg/injection, schedule: Q04DX002 (ip), vehicle: Klucel (hydroxypropylcellulose) (HPC) 103 % of control | [1] 91 % of control | dose: 50.0 mg/kg/injection, schedule: Q04DX002 (ip), vehicle: Klucel (hydroxypropylcellulose) (HPC) 103 % of control | [2] 97 % of control | [23] 95 % of control and 98 % of control | [3] 89 % of control | [4] 97 % of control

C#CCOCC1CNC(=O)O1 (stereo unspecified)
inactive: [5] 95 % of control | [6] 103 % of control | [7] 96 % of control | [8] 105 % of control | [9] 96 % of control | [10] 97 % of control | [29] 101 % of control | [31] 100 % of control | [30] 91 % of control | [32] 105 % of control

COc1cccc(Oc2c(O)c3ccc(OC)cc3oc2=O)c1
inactive: [11] 100 % of control | [12] 97 % of control | [13] 97 % of control

CCOc1ccc(/C=C2\N=C(c3cccc(Cl)c3)OC2=O)cc1
inactive: [20] 93 % of control | [21] 93 % of control | [22] 96 % of control

C=CCN=C(N)C(N)=NCC=C
inactive: [10] 96 % of control | [31] 101 % of control | [32] 103 % of control
